≈ marks a conversion by molar mass, not a printed value. Like-named read-outs stand apart in the source and are kept apart here.
Experiments:
[1] = target: E. coli RNA polymerase σ^70 holoenzyme (Escherichia coli, UniProt P0A8T7+P0A8V2); assay: Inhibition of Escherichia coli RNA polymerase (fluorescence-detected); assay type: biochemical; settings: read-out: IC50 E. coli RNAP
Description: (§1) Fluorescence-detected RNA polymerase assays with E. coli RNA polymerase were performed by a modification of the procedure of Kuhlman et al., 2004 [Kuhlman, P., Duff, H. & Galant, A. (2004) A fluorescence-based assay for multisubunit DNA-dependent RNA polymerases. Anal. Biochem. 324, 183-190]. Reaction mixtures contained (20 μl): 0-100 nM test compound, 75 nM E. coli RNA polymerase σ^70 holoenzyme, 20 nM 384 bp DNA fragment containing the bacteriophage T4 N25 promoter, 100 μM ATP, 100 μM GTP, 100 μM UTP, 100 μM CTP, 50 mM Tris-HCl, pH 8.0, 100 mM KCl, 10 mM MgCl2, 1 mM DTT, 10 μg/ml bovine serum albumin, and 5.5% glycerol. Reaction components other than DNA and NTPs were pre-incubated for 10 min at 37° C. Reactions were carried out by addition of DNA and incubation for 5 min at 37° C., followed by addition of NTPs and incubation for 60 min at 37° C. DNA was removed by addition of 1 μl 5 mM CaCl2 and 2 U DNaseI (Ambion, Inc.), followed by incubation for 90 min at 37° C. RNA was quantified by addition of 100 μl RiboGreen RNA Quantitation Reagent (Invitrogen, Inc.; 1:500 dilution in Tris-HCl, pH 8.0, 1 mM EDTA), followed by incubation for 10 min at 25° C., followed by measurement of fluorescence intensity [excitation wavelength=485 nm and emission wavelength=535 nm; QuantaMaster QM1 spectrofluorometer (PTI, Inc.)].

[2] = target: M. tuberculosis RNA polymerase (Mycobacterium tuberculosis, UniProt P9WGY7+P9WGY9); assay: Inhibition of Mycobacterium tuberculosis RNA polymerase (fluorescence-detected); assay type: biochemical
M. tuberculosis RNA polymerase, sequence (P9WGY5 whole entry): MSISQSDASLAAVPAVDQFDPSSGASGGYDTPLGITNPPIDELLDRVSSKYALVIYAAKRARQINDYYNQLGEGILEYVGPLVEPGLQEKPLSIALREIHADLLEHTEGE
M. tuberculosis RNA polymerase, sequence (P9WGZ1 whole entry, further chain): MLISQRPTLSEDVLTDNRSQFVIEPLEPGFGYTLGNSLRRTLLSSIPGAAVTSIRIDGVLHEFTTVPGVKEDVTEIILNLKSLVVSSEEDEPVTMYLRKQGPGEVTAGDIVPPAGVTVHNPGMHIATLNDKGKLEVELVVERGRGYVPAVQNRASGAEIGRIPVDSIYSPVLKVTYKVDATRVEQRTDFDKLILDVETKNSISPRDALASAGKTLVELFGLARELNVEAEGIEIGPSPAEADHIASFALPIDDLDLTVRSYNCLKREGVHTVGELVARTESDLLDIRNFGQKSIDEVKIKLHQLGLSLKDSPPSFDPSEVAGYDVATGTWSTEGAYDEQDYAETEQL
M. tuberculosis RNA polymerase, sequence (P9WGY9 whole entry): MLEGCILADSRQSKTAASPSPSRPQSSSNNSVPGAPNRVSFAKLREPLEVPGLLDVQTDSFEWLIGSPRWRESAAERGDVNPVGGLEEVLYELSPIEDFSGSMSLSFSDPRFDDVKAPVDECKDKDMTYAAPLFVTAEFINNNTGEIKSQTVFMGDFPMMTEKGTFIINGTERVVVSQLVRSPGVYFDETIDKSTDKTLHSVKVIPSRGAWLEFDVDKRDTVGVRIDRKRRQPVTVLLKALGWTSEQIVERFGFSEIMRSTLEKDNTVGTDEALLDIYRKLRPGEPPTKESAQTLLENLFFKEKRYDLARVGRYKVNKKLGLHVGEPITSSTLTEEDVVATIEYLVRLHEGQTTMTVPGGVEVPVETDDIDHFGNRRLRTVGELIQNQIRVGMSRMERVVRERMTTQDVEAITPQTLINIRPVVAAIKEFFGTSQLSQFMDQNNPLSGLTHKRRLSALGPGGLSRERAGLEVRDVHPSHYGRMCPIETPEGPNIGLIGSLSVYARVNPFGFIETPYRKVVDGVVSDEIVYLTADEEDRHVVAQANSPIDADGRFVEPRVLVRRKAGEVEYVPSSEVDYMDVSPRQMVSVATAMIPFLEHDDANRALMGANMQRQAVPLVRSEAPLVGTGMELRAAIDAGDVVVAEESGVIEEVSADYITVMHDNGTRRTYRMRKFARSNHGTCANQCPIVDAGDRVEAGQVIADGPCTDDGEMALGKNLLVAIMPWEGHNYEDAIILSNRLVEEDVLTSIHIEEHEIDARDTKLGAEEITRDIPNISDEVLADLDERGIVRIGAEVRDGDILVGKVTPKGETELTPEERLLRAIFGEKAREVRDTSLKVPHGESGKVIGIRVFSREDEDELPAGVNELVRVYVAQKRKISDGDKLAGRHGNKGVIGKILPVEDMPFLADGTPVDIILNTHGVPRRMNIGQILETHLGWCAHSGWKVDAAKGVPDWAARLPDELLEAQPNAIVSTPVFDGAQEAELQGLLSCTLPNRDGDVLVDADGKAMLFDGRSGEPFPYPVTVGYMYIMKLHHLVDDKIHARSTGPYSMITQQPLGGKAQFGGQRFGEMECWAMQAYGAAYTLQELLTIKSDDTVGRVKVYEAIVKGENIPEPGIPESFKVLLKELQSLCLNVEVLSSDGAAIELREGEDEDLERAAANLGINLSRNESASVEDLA
M. tuberculosis RNA polymerase, sequence (P9WGY7 whole entry): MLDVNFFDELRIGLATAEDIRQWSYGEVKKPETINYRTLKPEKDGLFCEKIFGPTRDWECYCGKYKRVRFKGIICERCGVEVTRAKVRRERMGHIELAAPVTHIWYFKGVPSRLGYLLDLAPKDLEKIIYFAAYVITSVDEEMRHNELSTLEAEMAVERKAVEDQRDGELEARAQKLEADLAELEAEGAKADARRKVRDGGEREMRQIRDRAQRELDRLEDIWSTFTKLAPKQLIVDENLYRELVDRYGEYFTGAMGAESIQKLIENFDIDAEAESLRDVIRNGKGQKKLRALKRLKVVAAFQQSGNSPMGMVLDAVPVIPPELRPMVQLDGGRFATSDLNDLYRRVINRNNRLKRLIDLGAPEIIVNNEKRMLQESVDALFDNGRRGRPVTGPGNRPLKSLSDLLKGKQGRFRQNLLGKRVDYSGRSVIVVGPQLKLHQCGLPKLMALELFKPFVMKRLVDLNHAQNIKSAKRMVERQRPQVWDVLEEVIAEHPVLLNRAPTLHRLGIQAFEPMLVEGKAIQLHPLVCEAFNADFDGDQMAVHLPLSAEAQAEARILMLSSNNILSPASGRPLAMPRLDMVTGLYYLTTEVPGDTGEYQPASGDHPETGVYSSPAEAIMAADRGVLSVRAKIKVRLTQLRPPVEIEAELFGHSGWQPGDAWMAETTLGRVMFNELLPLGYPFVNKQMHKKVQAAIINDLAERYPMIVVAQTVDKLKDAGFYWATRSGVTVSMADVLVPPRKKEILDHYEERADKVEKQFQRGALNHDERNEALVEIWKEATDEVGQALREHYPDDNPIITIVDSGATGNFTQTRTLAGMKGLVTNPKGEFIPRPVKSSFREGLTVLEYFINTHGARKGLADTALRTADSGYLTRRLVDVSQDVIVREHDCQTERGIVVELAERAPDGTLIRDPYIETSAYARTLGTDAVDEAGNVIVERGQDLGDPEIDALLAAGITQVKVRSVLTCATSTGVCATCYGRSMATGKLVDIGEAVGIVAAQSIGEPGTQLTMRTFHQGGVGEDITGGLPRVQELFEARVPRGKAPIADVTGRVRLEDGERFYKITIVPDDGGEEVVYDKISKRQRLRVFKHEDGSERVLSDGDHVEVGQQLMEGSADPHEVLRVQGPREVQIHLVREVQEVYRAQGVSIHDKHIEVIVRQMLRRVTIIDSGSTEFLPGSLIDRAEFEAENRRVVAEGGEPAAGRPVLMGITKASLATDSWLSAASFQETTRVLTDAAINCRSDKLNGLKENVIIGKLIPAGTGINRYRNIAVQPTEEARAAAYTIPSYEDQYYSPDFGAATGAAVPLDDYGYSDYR
M. tuberculosis RNA polymerase, sequence (P9WGI1 whole entry, further chain): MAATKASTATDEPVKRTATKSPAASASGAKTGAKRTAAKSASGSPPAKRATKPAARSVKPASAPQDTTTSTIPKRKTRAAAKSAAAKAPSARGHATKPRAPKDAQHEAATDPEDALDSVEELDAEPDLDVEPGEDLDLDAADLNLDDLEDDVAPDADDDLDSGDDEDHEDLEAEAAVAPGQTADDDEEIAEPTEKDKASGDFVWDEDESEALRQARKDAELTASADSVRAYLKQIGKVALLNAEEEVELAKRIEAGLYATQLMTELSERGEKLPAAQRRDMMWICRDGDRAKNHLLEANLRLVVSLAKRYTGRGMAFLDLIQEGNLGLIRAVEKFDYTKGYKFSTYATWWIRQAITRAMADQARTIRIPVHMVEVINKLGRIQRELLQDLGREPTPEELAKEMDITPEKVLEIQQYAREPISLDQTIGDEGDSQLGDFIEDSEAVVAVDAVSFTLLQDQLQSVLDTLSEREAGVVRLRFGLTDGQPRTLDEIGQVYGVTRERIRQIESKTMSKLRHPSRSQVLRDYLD
Description: as §1
Fluorescence-detected RNA polymerase assays with M. tuberculosis RNA polymerase were performed as in Example 17.1, using reaction mixtures containing (20 μl): 0-100 nM test compound, 75 nM M. tuberculosis RNA polymerase core enzyme, 300 nM M. tuberculosis σ^A, 20 nM 384 bp DNA fragment containing the bacteriophage […] N25 promoter, 100 μM ATP, 100 μM GTP, 100 μM UTP, 100 μM CTP, 40 mM Tris-HCl, pH 8.0, 80 mM NaCl, 5 mM MgCl2, 2.5 mM DTT, and 12.7% glycerol.

[3] = target: S. aureus RNA polymerase (Staphylococcus aureus, UniProt P47768+Q2G0N5); assay: Inhibition of Staphylococcus aureus RNA polymerase (fluorescence-detected); assay type: biochemical
[4] = test system: Acinetobacter baumannii ATCC 19606; assay: Inhibition of bacterial growth in culture (MIC, spiral gradient endpoint); assay type: cell-based; settings: for MIC: Acinetobacter baumannii, ATCC19606, Mueller-Hinton II agar, 16 h at 37° C.
Excerpt: (§2) Minimum inhibitory concentrations (MICs) for Staphylococcus aureus ATCC 12600, Enterococcus faecalis ATCC 19433, Acinetobacter baumannii ATCC 19606, and Escherichia coli D21f2tolC were quantified using spiral gradient endpoint assays, essentially as described [Wallace, A. and Corkill, J. (1989) Application of the spiral plating method to study antimicrobial action. J. Microbiol. Meths. […] Int. J. Exp. Clin. Chemother. 3, 31-38; Schalkowsky S. (1994) Measures of susceptibility from a spiral gradient of drug concentrations. Adv. Exp. Med. Biol. 349, 107-120]. Assays employed exponential-gradient plates containing 150 mm×4 mm Mueller-Hinton II cation-adjusted agar and 0.4-100 μg/ml of test compound. Plates were prepared using an Autoplate 4000 spiral plater (Spiral Biotech, Inc.). Saturated overnight cultures were swabbed radially onto plates, and plates were incubated for 16 h at 37° C. For each culture, the streak length was measured using a clear plastic template (Spiral Biotech, Inc.), the test-compound concentration at the streak endpoint was calculated using the program SGE (Spiral Biotech, Inc.), and the MIC was defined as the calculated test-compound concentration at the streak endpoint.

[5] = test system: Enterococcus faecalis ATCC 19433; assay: as above; assay type: cell-based; settings: for MIC: Enterococcus faecalis, ATCC19433, Mueller-Hinton II agar, 16 h at 37° C., read-out: MIC E. faecalis 19433
Excerpt: as §2

[6] = test system: Escherichia coli D21f2tolC; assay: as above; assay type: cell-based; settings: 16 h, read-out: MIC E. coli D21f2tolC
Excerpt: as §2

[7] = test system: Staphylococcus aureus ATCC 12600; assay: as above; assay type: cell-based; settings: for MIC: Staphylococcus aureus, ATCC12600, Mueller-Hinton II agar, 16 h at 37° C., read-out: MIC S. aureus 12600; for inhibition of Staphylococcus aureus compared with Myx B and 7-desmethyl-Myx B: summary of Table 3
Excerpt: as §2

[8] = test system: Staphylococcus aureus; assay: Antibacterial efficacy in mouse model of Staphylococcus aureus systemic infection (peritonitis model); assay type: in vivo, Swiss Webster mice
Description: (§3) Female Swiss Webster mice were experimentally infected by intraperitoneal administration of 5×10^7 colony forming units of Staphylococcus aureus in 10% hog gastric mucin. Test compounds (2-3 mg/ml in vehicle [9-19% dimethyacetamide/8-16% Cremophor EL in water, v/v]), positive controls (2 mg/ml vancomycin in vehicle), and negative controls (vehicle only and saline only), were administered by intravenous injection into a tail vein 1 h and 5 h post-infection (200 μl per injection). Survival was monitored for 12 h post-infection, or for 24, 48, and 72 h post-infection. At the end of the monitoring period, surviving animals were euthanized.

[9] = Tolerability upon intravenous injection (peritonitis model study); assay type: in vivo, Swiss Webster mice; settings: daily total doses of at least 30 mg/kg; vehicles containing 9% to 19% dimethylacetamide and 8% to 16% Cremophor EL
Description: as §3

[10] = read-out: IC50 M. tuberculosis RNAP
[11] = Table 4a, total dose 30 mg/kg iv, 1 h and 5 h post-infection, vehicle 19% dimethylacetamide/8% Cremophor EL/73% water
[12] = Table 4c, total dose 30 mg/kg iv, vehicle 9% dimethylacetamide/8% Cremophor EL/83% water

CCCCCCCC/C=C/C=C(\C)C(=O)c1c(O)cc([C@H](C)CC/C=C/NC(=O)OC)oc1=O (racemic) [compound 4, methyl ((E)-5-(4-hydroxy-3-((2E,4E)-2-methyltrideca-2,4-dienoyl)-2-oxo-2H-pyran-6-yl)hex-1-enyl)carbamate]
IC50 [1]: 4.6 nM | IC50 [2, 10]: 320 nM | IC50 ([3]; read-out: IC50 S. aureus RNAP): 8.3 nM | MIC [4]: 3.1 µg/mL (≈ 6.55 µM) | MIC [5]: > 40 µg/mL | MIC [6]: < 0.18 µg/mL | MIC [7]: 9.4 µg/mL (≈ 19.8 µM)

CCCC/C(C)=C/C=C(\C)C(=O)c1c(O)cc(CCC/C=C/NC(=O)OC)oc1=O [7-desmethyl-Myx B, Methyl ((E)-5-(3-((2E,4E)-2,5-dimethylnona-2,4-dienoyl)-4-hydroxy-2-oxo-2H-pyran-6-yl)pent-1-en-1-yl)carbamate, reference compound]
IC50 [1]: 22 nM | IC50 [2]: 81 nM | IC50 [3]: 140 nM | MIC [4]: > 40 µg/mL | inhibition of Acinetobacter baumannii (in words) ([4]; summary of Table 3): not detectably inhibited | MIC [5]: 25 µg/mL (≈ 59.9 µM) | MIC [6]: 0.195 µg/mL (≈ 0.467 µM) | MIC [7]: 3.1 µg/mL (≈ 7.43 µM)

CCCCC/C=C/C=C(\C)C(=O)c1c(O)cc(C(C)CC/C=C/NC(=O)OC)oc1=O (centres unmarked) [compound 1, Methyl ((E)-5-(4-hydroxy-3-((2E,4E)-2-methyldeca-2,4-dienoyl)-2-oxo-2H-pyran-6-yl)hex-1-en-1-yl)carbamate]
IC50 [1]: 12 nM | IC50 [2, 10]: 85 nM | IC50 ([3]; read-out: IC50 S. aureus RNAP): 52 nM | MIC [4]: > 40 µg/mL | MIC [5]: > 40 µg/mL | MIC [6]: 0.3 µg/mL (≈ 0.695 µM) | MIC [7]: 1.4 µg/mL (≈ 3.24 µM)

CCCCCC/C=C/C=C(\C)C(=O)c1c(O)cc(C(C)CC/C=C/NC(=O)OC)oc1=O (centres unmarked) [compound 2, Methyl ((E)-5-(4-hydroxy-3-((2E,4E)-2-methylundeca-2,4-dienoyl)-2-oxo-2H-pyran-6-yl)hex-1-en-1-yl)carbamate]
IC50 [1]: 11 nM | IC50 [2, 10]: 70 nM | IC50 ([3]; read-out: IC50 S. aureus RNAP): 23 nM | MIC [4]: 25 µg/mL (≈ 56.1 µM) | MIC [5]: > 40 µg/mL | MIC [6]: 0.23 µg/mL (≈ 0.516 µM) | MIC [7]: 1.4 µg/mL (≈ 3.14 µM)

CCCCCCC/C=C/C=C(\C)C(=O)c1c(O)cc(C(C)CC/C=C/NC(=O)OC)oc1=O (centres unmarked) [compound 3, Methyl ((E)-5-(4-hydroxy-3-((2E,4E)-2-methyldodeca-2,4-dienoyl)-2-oxo-2H-pyran-6-yl)hex-1-en-1-yl)carbamate]
IC50 [1]: 6.8 nM | IC50 [2, 10]: 270 nM | IC50 ([3]; read-out: IC50 S. aureus RNAP): 17 nM | MIC [4]: 5.6 µg/mL (≈ 12.2 µM) | MIC [5]: > 40 µg/mL | MIC [6]: < 0.18 µg/mL | MIC [7]: 2.4 µg/mL (≈ 5.22 µM)

CCCCCC/C(C)=C/C=C(\C)C(=O)c1c(O)cc(CCC/C=C/NC(=O)OC)oc1=O [compound 6, Methyl ((E)-5-(3-((2E,4E)-2,5-dimethylundeca-2,4-dienoyl)-4-hydroxy-2-oxo-2H-pyran-6-yl)pent-1-en-1-yl)carbamate]
IC50 [1]: 3.9 nM | IC50 [2, 10]: 47 nM | IC50 ([3]; read-out: IC50 S. aureus RNAP): 12 nM | MIC [4]: 5.5 µg/mL (≈ 12.3 µM) | MIC [5]: 13 µg/mL (≈ 29.2 µM) | MIC [6]: 0.076 µg/mL (≈ 0.171 µM) | MIC [7]: 0.45 µg/mL (≈ 1.01 µM) | inhibition of Staphylococcus aureus compared with Myx B and 7-desmethyl-Myx B [7]: more potently than Myx B and 7-desmethyl-Myx B

CCCCCC/C(C)=C/C=C(\C)C(=O)c1c(O)cc(CCC/C=C/NC(=O)OCC)oc1=O [compound 7, Ethyl ((E)-5-(3-((2E,4E)-2,5-dimethylundeca-2,4-dienoyl)-4-hydroxy-2-oxo-2H-pyran-6-yl)pent-1-en-1-yl)carbamate]
IC50 [1]: 63 nM | IC50 [2, 10]: 450 nM | IC50 ([3]; read-out: IC50 S. aureus RNAP): 93 nM | MIC [4]: > 40 µg/mL | MIC [5]: > 40 µg/mL | MIC [6]: 0.37 µg/mL (≈ 0.805 µM) | MIC [7]: 12 µg/mL (≈ 26.1 µM)

CCCCC/C(C)=C/C=C(\C)C(=O)c1c(O)cc(C(C)CC/C=C/NC(=O)OC)oc1=O (centres unmarked) [compound 8, Methyl ((E)-5-(3-((2E,4E)-2,5-dimethyldeca-2,4-dienoyl)-4-hydroxy-2-oxo-2H-pyran-6-yl)hex-1-en-1-yl)carbamate]
IC50 [1]: 4 nM | IC50 [2, 10]: 19 nM | IC50 ([3]; read-out: IC50 S. aureus RNAP): 9.2 nM | MIC [7]: 0.5 µg/mL (≈ 1.12 µM) | inhibition of Staphylococcus aureus compared with Myx B and 7-desmethyl-Myx B [7]: more potently than Myx B and 7-desmethyl-Myx B | 12-hour survival [8, 11]: 75% | effect on survival in a mouse model of Staphylococcus aureus infection (in words) ([8]; summary of Tables 4a-4c): increase survival | acute toxicity upon intravenous injection [9]: tolerated without acute toxicity

CCCCCC/C(C)=C/C=C(\C)C(=O)c1c(O)cc(C(C)CC/C=C/NC(=O)OC)oc1=O (centres unmarked) [compound 9, Methyl ((E)-5-(3-((2E,4E)-2,5-dimethylundeca-2,4-dienoyl)-4-hydroxy-2-oxo-2H-pyran-6-yl)hex-1-en-1-yl)carbamate]
IC50 [1]: 4.7 nM | IC50 [2, 10]: 36 nM | IC50 ([3]; read-out: IC50 S. aureus RNAP): 13 nM | MIC [4]: 5.5 µg/mL (≈ 12 µM) | MIC [5]: 6.4 µg/mL (≈ 13.9 µM) | inhibition of Enterococcus faecalis compared with Myx B and 7-desmethyl-Myx B ([5]; summary of Table 3): more potently than Myx B and 7-desmethyl-Myx B | MIC [6]: 0.076 µg/mL (≈ 0.165 µM) | MIC [7]: 0.34 µg/mL (≈ 0.74 µM) | inhibition of Staphylococcus aureus compared with Myx B and 7-desmethyl-Myx B [7]: more potently than Myx B and 7-desmethyl-Myx B

CCCCC/C(C)=C\C=C(/C)C(=O)c1c(O)cc(CCC/C=C/NC(=O)OC)oc1=O [compound 10, Methyl ((E)-5-(3-((2E,4Z)-2,5-dimethyldeca-2,4-dienoyl)-4-hydroxy-2-oxo-2H-pyran-6-yl)pent-1-en-1-yl)carbamate]
IC50 [1]: 40 nM | IC50 [2, 10]: 340 nM | IC50 ([3]; read-out: IC50 S. aureus RNAP): 100 nM | MIC [4]: > 40 µg/mL | MIC [5]: > 40 µg/mL | MIC [6]: 0.39 µg/mL (≈ 0.904 µM) | MIC [7]: 3.3 µg/mL (≈ 7.65 µM)

CN[C@H](CC(C)C)C(=O)N[C@H]1C(=O)N[C@@H](CC(N)=O)C(=O)N[C@H]2C(=O)N[C@H]3C(=O)N[C@H](C(=O)N[C@H](C(=O)O)c4cc(O)cc(O)c4-c4cc3ccc4O)[C@H](O)c3ccc(c(Cl)c3)Oc3cc2cc(c3O[C@@H]2O[C@H](CO)[C@@H](O)[C@H](O)[C@H]2O[C@H]2C[C@](C)(N)[C@H](O)[C@H](C)O2)Oc2ccc(cc2Cl)[C@H]1O [vancomycin]
12-hour survival [8, 11]: 100% | 12-hour survival ([8]; Table 4b, total dose 30 mg/kg iv, vehicle 19% dimethylacetamide/16% Cremophor EL/73% water): 100% | 24-hour survival [8, 12]: 100% | 48-hour survival [8, 12]: 100% | 72-hour survival [8, 12]: 100%

From patent US9133155B2, “Antibacterial agents: high-potency myxopyronin derivatives” (Rutgers, The State University of New Jersey, priority 2010, dated 2015)
